This note sets out measurements from US20250346575A1, “ISOINDOLINONE DERIVATIVE HAVING GLUTARIMIDE MOTHER NUCLEUS, AND USE THEREOF” (KOREA RESEARCH INSTITUTE OF CHEMICAL TECHNOLOGY, priority 2021, published 2025).

The first series relates to Cancer cells (KG-1). The experiment in a line: Cytotoxicity assay, WST-1, KG-1. The format is cell-based. To be noted: Homo sapiens; KG-1 cells, 72 hours, WST-1. How it is done: To evaluate the effect of the compounds of the present disclosure on cancer cells, a cytotoxicity assay was conducted as follows.
Cancer cells (KG-1) were seeded at a concentration of 10,000 cells per well into a 96-well plate. Then, the cells were treated with predetermined concentrations of compounds of the Examples and comparative substances (comparative compounds 1, 2, 3). After 72 hours, the cells were incubated with WST-1 reagent for one hour. Then, absorbance was measured at 450 nm using a spectramax spectrophotometer to assess the degree of cancer cell apoptosis. The IC50 (μM) values were calculated using the measured values with the GraphPad Prism program and the measurements are summarized in Table 1.
Background: Tetrazolium dyes change colour on reduction, which living cells bring about.
With `O=C1CCC(N2Cc3cc(CNC(=O)c4cc5ccccc5cn4)ccc3C2=O)C(=O)N1` (stereo not shown) [Comparative Compound 1, N-((2-(2,6-Dioxopiperidin-3-yl)-1-oxoisoindolin-5-yl)methyl)isoquinoline-3-carboxamide, reference compound], the IC50 (as a rule, the concentration at which inhibition is half-maximal) lay in the range of 10 to 50 µM.
On the same count and under the same terms, next, `O=C1CCC(N2Cc3cc(CNC(=O)c4cnc5ccccc5n4)ccc3C2=O)C(=O)N1` (stereo not shown) [Comparative Compound 2, N-((2-(2,6-Dioxopiperidin-3-yl)-1-oxoisoindolin-5-yl)methyl)quinoxaline-2-carboxamide, reference compound]: 10 to 50 µM; `O=C1CCC(N2Cc3cc(CNC(=O)c4ccc5cc(Cl)ccc5n4)ccc3C2=O)C(=O)N1` (stereo not shown) [Comparative Compound 3, 6-Chloro-N-((2-(2,6-dioxopiperidin-3-yl)-1-oxoisoindolin-5-yl)methyl)quinoline-2-carboxamide, reference compound]: 10 to 50 µM.
Still for that read-out and setting: next, `O=C1CCC(N2Cc3cc(CNC(=O)c4ccccc4)ccc3C2=O)C(=O)N1` (stereo not shown) [Comparative substance, reference compound]: 10 to 50 µM; `O=C1CCC(N2Cc3cc(CNC(=O)c4n[nH]c5cc(Cl)ccc45)ccc3C2=O)C(=O)N1` (stereo not shown) [Compound 1, 6-Chloro-N-((2-(2,6-dioxopiperidin-3-yl)-1-oxoisoindolin-5-yl)methyl)-1H-indazole-3-carboxamide]: 0.0001 to 0.01 µM.
In turn, `O=C1CCC(N2Cc3cc(CNC(=O)c4cc(-c5ccc(Cl)cc5)n[nH]4)ccc3C2=O)C(=O)N1` (stereo not shown) [Compound 2, 3-(4-Chlorophenyl)-N-((2-(2,6-dioxopiperidin-3-yl)-1-oxoisoindolin-5-yl)methyl)-1H-pyrazole-5-carboxamide] displayed an IC50 of 0.0001 to 0.01 µM.
For `O=C1CCC(N2Cc3cc(CNC(=O)c4n[nH]c5cc(Cl)c(Cl)cc45)ccc3C2=O)C(=O)N1` (stereo not shown) [Compound 4, 5,6-Dichloro-N-((2-(2,6-dioxopiperidin-3-yl)-1-oxoisoindolin-5-yl)methyl)-1H-indazole-3-carboxamide], the IC50 lay within 0.0001 to 0.01 µM.
Take `O=C1CCC(N2Cc3cc(CNC(=O)c4cc(-c5cccc(Cl)c5)n[nH]4)ccc3C2=O)C(=O)N1` (stereo not shown) [Compound 5, 3-(3-Chlorophenyl)-N-((2-(2,6-dioxopiperidin-3-yl)-1-oxoisoindolin-5-yl)methyl)-1H-pyrazole-5-carboxamide]: the IC50 was in the range of 0.0001 to 0.01 µM.
Turning to `O=C1CCC(N2Cc3cc(CNC(=O)c4c[nH]c5cc(Cl)ccc45)ccc3C2=O)C(=O)N1` (stereo not shown) [Compound 6, 6-chloro-N-((2-(2,6-dioxopiperidin-3-yl)-1-oxoisoindolin-5-yl)methyl)-1H-indole-3-carboxamide], the IC50 was 0.01 to 1 µM.
Turning to `O=C1CCC(N2Cc3cc(CNC(=O)c4c[nH]c5ccc(Cl)cc45)ccc3C2=O)C(=O)N1` (stereo not shown) [Compound 7, 5-Chloro-N-((2-(2,6-dioxopiperidin-3-yl)-1-oxoisoindolin-5-yl)methyl)-1H-indole-3-carboxamide], the IC50 lay within 0.01 to 1 µM.
The same measure, in the same setting: then `O=C1CCC(N2Cc3cc(CNC(=O)c4n[nH]c5ccc(Cl)cc45)ccc3C2=O)C(=O)N1` (stereo not shown) [Compound 8, 5-Chloro-N-((2-(2,6-dioxopiperidin-3-yl)-1-oxoisoindolin-5-yl)methyl)-1H-indazole-3-carboxamide], with 0.01 to 1 µM; and `O=C1CCC(N2Cc3cc(CNC(=O)c4cc5ccc(Cl)cc5[nH]4)ccc3C2=O)C(=O)N1` (stereo not shown) [Compound 9, 6-chloro-N-((2-(2,6-dioxopiperidin-3-yl)-1-oxoisoindolin-5-yl)methyl)-1H-indole-2-carboxamide], with 0.01 to 1 µM.
On the same count and under the same terms, then `O=C1CCC(N2Cc3cc(CNC(=O)c4cc(-c5ccc(Cl)cc5)on4)ccc3C2=O)C(=O)N1` (stereo not shown) [Compound 11, 5-(4-Chlorophenyl)-N-((2-(2,6-dioxopiperidin-3-yl)-1-oxoisoindolin-5-yl)methyl)isoxazole-3-carboxamide], with 0.0001 to 0.01 µM.
`O=C1CCC(N2Cc3cc(CNC(=O)c4cc(-c5cccc(Cl)c5)c[nH]4)ccc3C2=O)C(=O)N1` (stereo not shown) [Compound 14, 4-(3-Chlorophenyl)-N-((2-(2,6-dioxopiperidin-3-yl)-1-oxoisoindolin-5-yl)methyl)-1H-pyrrole-2-carboxamide] showed a half-maximal inhibitory concentration (IC50) of 0.0001 to 0.01 µM.
The compound `O=C1CCC(N2Cc3cc(CNC(=O)c4cn(-c5cccc(Cl)c5)nn4)ccc3C2=O)C(=O)N1` (stereo not shown) [Compound 15, 1-(3-chlorophenyl)-N-((2-(2,6-dioxopiperidin-3-yl)-1-oxoisoindolin-5-yl)methyl)-1H-1,2,3-triazole-4-carboxamide] returned a 50% inhibitory concentration (IC50) of 0.0001 to 0.01 µM.
Still for that read-out and setting: then `O=C1CCC(N2Cc3cc(CNC(=O)c4nc5cc(Cl)c(Cl)cc5[nH]4)ccc3C2=O)C(=O)N1` (stereo not shown) [Compound 16, 5,6-dichloro-N-((2-(2,6-dioxopiperidin-3-yl)-1-oxoisoindolin-5-yl)methyl)-1H-benzo[d]imidazole-2-carboxamide], with 0.01 to 1 µM; and `Cc1c(C(=O)NCc2ccc3c(c2)CN(C2CCC(=O)NC2=O)C3=O)n[nH]c1-c1ccccc1` (stereo not shown) [Compound 17, N-((2-(2,6-Dioxopiperidin-3-yl)-1-oxoisoindolin-5-yl)methyl)-4-methyl-5-phenyl-1H-pyrazole-3-carboxamide], with 0.0001 to 0.01 µM.
Still for that read-out and setting: next, `O=C1CCC(N2Cc3cc(CNC(=O)c4cc(-c5ccc(Cl)cc5)ccn4)ccc3C2=O)C(=O)N1` (stereo not shown) [Compound 18, 4-(4-chlorophenyl)-N-((2-(2,6-dioxopiperidin-3-yl)-1-oxoisoindolin-5-yl)methyl)picolinamide]: 0.0001 to 0.01 µM.
Same read-out and setting: next, `O=C1CCC(N2Cc3cc(CNC(=O)c4cc(-c5cccc(Cl)c5)on4)ccc3C2=O)C(=O)N1` (stereo not shown) [Compound 19, 5-(3-Chlorophenyl)-N-((2-(2,6-dioxopiperidin-3-yl)-1-oxoisoindolin-5-yl)methyl)isoxazole-3-carboxamide]: 0.0001 to 0.01 µM; `O=C1CCC(N2Cc3cc(CNC(=O)c4ncc(-c5cccc(Cl)c5)cn4)ccc3C2=O)C(=O)N1` (stereo not shown) [Compound 20, 5-(3-Chlorophenyl)-N-((2-(2,6-dioxopiperidin-3-yl)-1-oxoisoindolin-5-yl)methyl)pyrimidine-2-carboxamide]: 0.0001 to 0.01 µM; `Cc1c(C(=O)NCc2ccc3c(c2)CN(C2CCC(=O)NC2=O)C3=O)nn(Cc2ccccc2)c1-c1cccc(Cl)c1` (stereo not shown) [Compound 21, 1-Benzyl-5-(3-chlorophenyl)-N-((2-(2,6-dioxopiperidin-3-yl)-1-oxoisoindolin-5-yl)methyl)-4-methyl-1H-pyrazole-3-carboxamide]: 0.0001 to 0.01 µM.
The compound `Cn1nc(C(=O)NCc2ccc3c(c2)CN(C2CCC(=O)NC2=O)C3=O)cc1-c1ccccc1` (stereo not shown) [Compound 23, N-((2-(2,6-Dioxopiperidin-3-yl)-1-oxoisoindolin-5-yl)methyl)-1-methyl-5-phenyl-1H-pyrazole-3-carboxamide] had an IC50 of 0.0001 to 0.01 µM.
With `O=C1CCC(N2Cc3cc(CNC(=O)c4cc(-c5ccc(Cl)cc5Cl)[nH]n4)ccc3C2=O)C(=O)N1` (stereo not shown) [Compound 25, 5-(2,4-Dichlorophenyl)-N-((2-(2,6-dioxopiperidin-3-yl)-1-oxoisoindolin-5-yl)methyl)-1H-pyrazole-3-carboxamide], the IC50 fell in the range of 0.0001 to 0.01 µM.
On to `O=C1CCC(N2Cc3cc(CNC(=O)c4nc5ccc(Cl)cc5s4)ccc3C2=O)C(=O)N1` (stereo not shown) [Compound 26, 6-Chloro-N-((2-(2,6-dioxopiperidin-3-yl)-1-oxoisoindolin-5-yl)methyl)benzo[d]thiazole-2-carboxamide], for which the IC50 fell in the range of 0.01 to 1 µM.
The compound `O=C1CCC(N2Cc3cc(CNC(=O)c4n[nH]c(-c5cccc(Cl)c5)c4Br)ccc3C2=O)C(=O)N1` (stereo not shown) [Compound 27, 4-Bromo-3-(3-chlorophenyl)-N-((2-(2,6-dioxopiperidin-3-yl)-1-oxoisoindolin-5-yl)methyl)-1H-pyrazole-5-carboxamide] registered an IC50 of 0.0001 to 0.01 µM.
On the same count and under the same terms, next, `O=C1CCC(N2Cc3cc(CNC(=O)c4cc(-c5cc(Cl)ccc5Cl)[nH]n4)ccc3C2=O)C(=O)N1` (stereo not shown) [Compound 28, 5-(2,5-Dichlorophenyl)-N-((2-(2,6-dioxopiperidin-3-yl)-1-oxoisoindolin-5-yl)methyl)-1H-pyrazole-3-carboxamide]: 0.0001 to 0.01 µM; `Cc1ccc(-c2cc(C(=O)NCc3ccc4c(c3)CN(C3CCC(=O)NC3=O)C4=O)n[nH]2)c(C)c1` (stereo not shown) [Compound 29, 5-(2,4-Dimethylphenyl)-N-((2-(2,6-dioxopiperidin-3-yl)-1-oxoisoindolin-5-yl)methyl)-1H-pyrazole-3-carboxamide]: 0.0001 to 0.01 µM; `O=C1CCC(N2Cc3cc(CNC(=O)c4cccc(-c5ccccc5)c4)ccc3C2=O)C(=O)N1` (stereo not shown) [Compound 30, N-((2-(2,6-Dioxopiperidin-3-yl)-1-oxoisoindolin-5-yl)methyl)-[1,1′-biphenyl]-3-carboxamide]: 10 to 50 µM.
On the same count and under the same terms, then `Cc1ccnc(C(=O)NCc2ccc3c(c2)CN(C2CCC(=O)NC2=O)C3=O)c1` (stereo not shown) [Compound 31, N-((2-(2,6-Dioxopiperidin-3-yl)-1-oxoisoindolin-5-yl)methyl)-4-methylpicolinamide], with 10 to 50 µM; and `O=C1CCC(N2Cc3cc(CNC(=O)c4n[nH]c5ccccc45)ccc3C2=O)C(=O)N1` (stereo not shown) [Compound 34, N-((2-(2,6-Dioxopiperidin-3-yl)-1-oxoisoindolin-5-yl)methyl)-1H-indazole-3-carboxamide], with 0.01 to 1 µM.

Still in this series, the particulars now being: R1 bicyclic heteroaryl compared to monocyclic aryl (comparative substance) or heteroaryl (Compounds 37 and 38).
For `O=C1CCC(N2Cc3cc(CNC(=O)c4nc5cc(Cl)ccc5[nH]4)ccc3C2=O)C(=O)N1` (stereo not shown) [Compound 3, 5-Chloro-N-((2-(2,6-dioxopiperidin-3-yl)-1-oxoisoindolin-5-yl)methyl)-1H-benzo[d]imidazole-2-carboxamide], the “cytotoxic activity against KG-1 and NCI-H1155 cancer cells (in words)” value is recorded as “more potent cytotoxic activity”.
Same read-out and setting: then `O=C1CCC(N2Cc3cc(CNC(=O)c4c[nH]c5ccc(Cl)cc45)ccc3C2=O)C(=O)N1` (stereo not shown) [Compound 7, 5-Chloro-N-((2-(2,6-dioxopiperidin-3-yl)-1-oxoisoindolin-5-yl)methyl)-1H-indole-3-carboxamide], with “more potent cytotoxic activity”.

Staying with this series, now noted: monocyclic heteroaryl R1 and aryl R2 compared to bicyclic heteroaryl R1 (Compounds 8, 9, and 26).
Take `Cc1c(C(=O)NCc2ccc3c(c2)CN(C2CCC(=O)NC2=O)C3=O)n[nH]c1-c1ccccc1` (stereo not shown) [Compound 17, N-((2-(2,6-Dioxopiperidin-3-yl)-1-oxoisoindolin-5-yl)methyl)-4-methyl-5-phenyl-1H-pyrazole-3-carboxamide]: the “activity (in words)” value is “significantly more potent activity”.
Same read-out and setting: then `Cn1nc(C(=O)NCc2ccc3c(c2)CN(C2CCC(=O)NC2=O)C3=O)cc1-c1ccccc1` (stereo not shown) [Compound 23, N-((2-(2,6-Dioxopiperidin-3-yl)-1-oxoisoindolin-5-yl)methyl)-1-methyl-5-phenyl-1H-pyrazole-3-carboxamide], with “significantly more potent activity”.
